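1) Cells in 96-well plates. 2) Compound, 48 h, 5 concentrations. 3) Linear interpolation between surrounding doses. 4) Unreached endpoint = highest concentration. Abbreviation: GI50, concentration required for 50% inhibition of growth.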 The source made the active and inactive calls. Cut-off read from the data, not from the text of the source: active = GI50 up to about 1.1 µM and inactive = higher.
How the values were obtained:
Test in all cases: DTP human tumour cell line panel, 48 h
SNB-19 = test system: SNB-19
UACC-62 = test system: UACC-62
OVCAR-8 = test system: OVCAR-8
SN12C = test system: SN12C
CCRF-CEM = test system: CCRF-CEM
HCC 2998 = test system: HCC 2998
OVCAR-3 = test system: OVCAR-3
OVCAR-5 = test system: OVCAR-5
CAKI-1 = test system: CAKI-1
M19-MEL = test system: M19-MEL
UO-31 = test system: UO-31
KM12 = test system: KM12
IGROV-1 = test system: IGROV-1
HCT-15 = test system: HCT-15
LOX IMVI = test system: LOX IMVI
SNB-75 = test system: SNB-75
UACC-257 = test system: UACC-257
XF498 = test system: XF498
EKVX = test system: EKVX
NCI-H23 = test system: NCI-H23
A549 = test system: A549
HOP-62 = test system: HOP-62
SK-OV-3 = test system: SK-OV-3
SK-MEL-2 = test system: SK-MEL-2
HCT-116 = test system: HCT-116
RPMI-8226 = test system: RPMI-8226
U-251 = test system: U-251
SK-MEL-5 = test system: SK-MEL-5
SF-539 = test system: SF-539
HOP-92 = test system: HOP-92
MOLT-4 = test system: MOLT-4
HOP-18 = test system: HOP-18
NCI/ADR-RES = test system: NCI/ADR-RES
NCI-H522 = test system: NCI-H522
KM-20L2 = test system: KM-20L2
OVCAR-4 = test system: OVCAR-4
NCI-H460 = test system: NCI-H460
SK-MEL-28 = test system: SK-MEL-28
DMS-273 = test system: DMS-273
HL-60 = test system: HL-60
COLO 205 = test system: COLO 205
HT-29 = test system: HT-29
NCI-H226 = test system: NCI-H226
Malme-3M = test system: Malme-3M
A498 = test system: A498
SF-268 = test system: SF-268
SW-620 = test system: SW-620
MCF7 = test system: MCF7
DLD-1 = test system: DLD-1
SNB-78 = test system: SNB-78
K562 = test system: K562
RXF 393 = test system: RXF 393
SF-295 = test system: SF-295
DMS-114 = test system: DMS-114

## N/C(=N\O)N/N=C\c1ccccc1O
SNB-19
  GI50: 18.9 µM (inactive)
UACC-62
  GI50: 5.64 µM (inactive)
OVCAR-8
  GI50: 3.2 µM (inactive)
SN12C
  GI50: 11.6 µM (inactive)
CCRF-CEM
  GI50: 5.6 µM (inactive)
HCC 2998
  GI50: 3.24 µM (inactive)
OVCAR-3
  GI50: 10.4 µM (inactive)
OVCAR-5
  GI50: 37.5 µM (inactive)
CAKI-1
  GI50: 3.84 µM (inactive)
M19-MEL
  GI50: 16.6 µM (inactive)
UO-31
  GI50: 7.98 µM (inactive)
KM12
  GI50: 5.02 µM (inactive)
IGROV-1
  GI50: 11.3 µM (inactive)
HCT-15
  GI50: 3.48 µM
LOX IMVI
  GI50: 5.48 µM (inactive)
SNB-75
  GI50: 9.48 µM (inactive)
UACC-257
  GI50: 16.2 µM (inactive)
XF498
  GI50: 1.04 µM (active)
EKVX
  GI50: 11.2 µM (inactive)
NCI-H23
  GI50: 7.6 µM (inactive)
A549
  GI50: 6.01 µM (inactive)
HOP-62
  GI50: 11.2 µM (inactive)
SK-OV-3
  GI50: 31.3 µM (inactive)
SK-MEL-2
  GI50: 21 µM (inactive)
HCT-116
  GI50: 4.85 µM (inactive)
RPMI-8226
  GI50: 1.48 µM (inactive)
U-251
  GI50: 8.34 µM (inactive)
SK-MEL-5
  GI50: 10 µM (inactive)
SF-539
  GI50: 14.5 µM (inactive)
HOP-92
  GI50: 8.79 µM (inactive)
MOLT-4
  GI50: 7.13 µM (inactive)
HOP-18
  GI50: 27.2 µM (inactive)
NCI/ADR-RES
  GI50: 4.14 µM (inactive)
NCI-H522
  GI50: 11.8 µM (inactive)
KM-20L2
  GI50: 10.2 µM (inactive)
OVCAR-4
  GI50: 4.06 µM (inactive)
NCI-H460
  GI50: 3.29 µM (inactive)
SK-MEL-28
  GI50: 19.3 µM (inactive)
DMS-273
  GI50: 4.38 µM (inactive)
HL-60
  GI50: 0.977 µM (active)
COLO 205
  GI50: 5.81 µM (inactive)
HT-29
  GI50: 4.19 µM (inactive)
NCI-H226
  GI50: 16 µM (inactive)
Malme-3M
  GI50: 22.4 µM (inactive)
A498
  GI50: 8.95 µM (inactive)
SF-268
  GI50: 12.4 µM (inactive)
SW-620
  GI50: 13.1 µM (inactive)
MCF7
  GI50: 4.32 µM (inactive)
DLD-1
  GI50: 5.02 µM (inactive)
SNB-78
  GI50: 21.9 µM (inactive)
K562
  GI50: 3.99 µM (inactive)
RXF 393
  GI50: 7.98 µM (inactive)
SF-295
  GI50: 4 µM (inactive)
DMS-114
  GI50: 4.73 µM (inactive)
